According to patent US6410594B1, “Substituted cyclopentane compounds useful as neuraminidase inhibitors” (Biocryst Pharmaceuticals, Inc., priority 1996, dated 2002):
Counter-ions that a name gives are not always drawn.

Biological target: H1N9 Influenza Neuraminidase (Influenza A virus, UniProt P03472)
Experiment: biochemical
Parameters: species or system influenza virus (H1N9 strain)
Conditions: 10 min at 37° C.; read-out: Inhibition of H1N9 Influenza Neuraminidase IC50

Sequence of H1N9 Influenza Neuraminidase (P03472 83-470 limits assumed): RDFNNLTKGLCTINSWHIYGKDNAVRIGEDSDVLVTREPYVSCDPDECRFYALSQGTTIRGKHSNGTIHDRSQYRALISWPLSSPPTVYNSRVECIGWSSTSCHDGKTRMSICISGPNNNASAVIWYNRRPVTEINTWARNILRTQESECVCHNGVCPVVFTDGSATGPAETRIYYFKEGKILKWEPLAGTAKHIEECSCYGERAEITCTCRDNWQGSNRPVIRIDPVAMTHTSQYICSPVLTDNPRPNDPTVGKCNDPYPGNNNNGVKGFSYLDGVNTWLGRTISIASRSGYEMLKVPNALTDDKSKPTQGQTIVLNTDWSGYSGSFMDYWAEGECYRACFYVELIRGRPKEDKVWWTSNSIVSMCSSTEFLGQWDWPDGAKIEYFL

Row | Structure (SMILES) | IC50 [µM]
1 | CC(=O)NC[C@@H]1C[C@H](C(=O)O)C[C@H]1NC(=N)N (relative stereo) [Example 3, t-3-{[(Amino)(imino)methyl]amino}-c-4-[(methylcarbonylamino)methyl]-cyclopentan-r-carboxylic acid trifluoroacetic acid [1:1.25]] | 115
2 | CC(=O)NC(C(O)C(O)CO)[C@H]1CC(C(=O)O)C[C@@H]1NC(=N)N (single isomer, unassigned; isomer b) [Example 14, 3β-{[(Amino)(imino)methyl]amino}-4α-[(1-methylcarbonylamino)(2,3,4-trihydroxy)butyl]cyclo-pentancarboxylic acid trifluoroacetic acid (4:9) (isomer B at C-6, isomer A at C-1, C-7 and/or C-8)] | 40
3 | CON(C)CCC(=O)C(NC(C)=O)[C@H]1CC(C(=O)O)C[C@@H]1NC(=N)N (stereo partly drawn) [Example 20] | 8
4 | N=C(N)NC[C@@H]1C[C@H](C(=O)O)C[C@H]1NC(=N)N (relative stereo) [Example 5, t-3-{[(Amino)(imino)methyl]amino}-c-4-{{[(amino)(imino)methyl]amino}methyl}cyclopentan-r-carboxylic acid dihydrochloride hydrate 2-propanol (5:10:5:2)] | 280
5 | CC(=O)NC(COC(=O)C(F)(F)F)[C@H]1C[C@](O)(C(=O)O)C[C@@H]1NC(=N)N (single isomer, unassigned; isomer a) [Example 16, c-3-{[(Amino)(imino)methyl]amino}-t-1-hydroxy-t-4-[(1-methylcarbonylamino)(2-trifluoromethyl-carbonyloxy)ethyl]cyclopentan-r-carboxylic acid trifluoroacetic acid (4:1) (isomer A at C-6)] | 70
6 | CC(=O)NC(CO)[C@H]1C[C@@](O)(C(=O)O)C[C@@H]1NC(=N)N (single isomer, unassigned; isomer a) [Example 9, t-3-{[(Amino)(imino)methyl]amino}-t-1-hydroxy-c-4-[(2-hydroxymethyl)(1-methylcarbonyl-amino)ethyl]cyclopentan-r-carboxylic acid trifluoroacetic acid diethyl ether [20:15:2] (isomer A at C-6)] | 600
7 | CC(=O)NC(CO)[C@H]1CC(C(=O)O)C[C@@H]1NC(=N)N (single isomer, unassigned; isomer b) [Example 7, Sodium 3β-{[(amino)(imino)methyl]amino}-4α-[(2-hydroxy)(1-methylcarbonylamino)ethyl]-cyclopentan-r-carboxylate:diethylether:hydrate (12:4:3), isomer B] | 3800
8 | CC(=O)NC(C(O)C(O)CO)[C@H]1CC(C(=O)O)C[C@@H]1NC(=N)N (single isomer, unassigned; isomer a) [Example 12, 3β-{[(Amino)(imino)methyl]amino}-4α-[(1-methylcarbonylamino) (2,3,4-trihydroxy)butyl)butyl]-cyclonentancarboxylic acid trifluoroacetic acid (1:2) (isomer A at C-1, isomer A at C-6, isomer B at C-7)] | 7.5
9 | CC(=O)NC(C(O)C(O)CO)[C@H]1CC(C(=O)O)C[C@@H]1N (single isomer, unassigned; isomer a) [Example 10, 3β-amino-4α-[(1-methylcarbonylamino)(2,3,4-trihydroxy)butyl]cyclopentancarboxylic acid trifluoroacetic acid (1:1) (isomer A at C-6)] | 600
10 | CC(=O)NC(C(O)C(O)CO)[C@H]1CC(C(=O)O)C[C@@H]1NC(=N)N (single isomer, unassigned; isomer b) [Example 15, 3β-{[(Amino)(imino)methyl]amino}-4α-[(1-methylcarbonylamino)(2,3,4-trihydroxy)butyl]cyclo-pentancarboxylic acid trifluoroacetic acid (5:13) (isomer B at C-6, isomer B at C-1, C-7 and/or C-8)] | 50
11 | CC(=O)NC(COC(=O)C(F)(F)F)[C@H]1C[C@](O)(C(=O)O)C[C@@H]1NC(=N)N (single isomer, unassigned; isomer b) [Example 17, c-3-{[(Amino)(imino)methyl]amino}-t-1-hydroxy-t-4-[(1-methylcarbonylamino)(2-trifluoromethyl-carbonyloxy)ethyl]cyclopentan-r-carboxylic acid trifluoroacetic acid (4:3) (isomer B at C-6)] | 2000
12 | CC(=O)NC(C(O)C(O)CO)[C@H]1CC(C(=O)O)C[C@@H]1NC(=N)N (single isomer, unassigned; isomer b) [Example 13, 3β-{[(Amino)(imino)methyl]amino}-4α-[(1-methylcarbonylamino)(2,3,4-trihydroxy)butyl]-cyclopentancarboxylic acid trifluoroacetic acid (1:2) (isomer B at C-1, isomer A at C-6, isomer B at C-7)] | 4.3

System: not given
Experiment: not given
Conditions: not given

Row | Structure (SMILES) | melting point
13 | CC(=O)NC(CO)[C@H]1C[C@@](O)(C(=O)O)C[C@@H]1N (stereo partly drawn) (as salt: ammonium) | 83 to 85 °C
14 | CCCN(CCC)C(=O)C(NC(C)=O)[C@H]1C[C@@](O)(C(=O)O)C[C@@H]1NC(=N)N (stereo partly drawn) (as salt: salt) [Example 23, t-3-{[(Amino)(imino)methyl]amino}-c-4-[(di-n-propylaminocarbonyl)(methylcarbonylamino)-methyl]-t-hydroxycyclpentan-r-carboxylic acid trifluoroacetic acid (4:5)] | 153 to 155 °C
15 | CC(=O)NC(C(O)C(O)CO)[C@H]1CC(C(=O)O)C[C@@H]1NC(=N)N (single isomer, unassigned; isomer b) (as salt: salt) [Example 14, 3β-{[(Amino)(imino)methyl]amino}-4α-[(1-methylcarbonylamino)(2,3,4-trihydroxy)butyl]cyclo-pentancarboxylic acid trifluoroacetic acid (4:9) (isomer B at C-6, isomer A at C-1, C-7 and/or C-8)] | 125 to 135 °C
16 | CON(C)CCC(=O)C(NC(C)=O)[C@H]1CC(C(=O)O)C[C@@H]1NC(=N)N (stereo partly drawn) (as salt: salt) [Example 20] | 189 to 192 °C
17 | CC(=O)NC(COC(=O)C(F)(F)F)[C@H]1C[C@](O)(C(=O)O)C[C@@H]1NC(=N)N (single isomer, unassigned; isomer b) (as salt: salt) [Example 17, c-3-{[(Amino)(imino)methyl]amino}-t-1-hydroxy-t-4-[(1-methylcarbonylamino)(2-trifluoromethyl-carbonyloxy)ethyl]cyclopentan-r-carboxylic acid trifluoroacetic acid (4:3) (isomer B at C-6)] | 210 to 220 °C
18 | CC(=O)NC(CO)[C@H]1CC(C(=O)[O-])C[C@@H]1NC(=N)N.[Na+] (single isomer, unassigned; isomer b) (hydrate or solvate) [Example 7, Sodium 3β-{[(amino)(imino)methyl]amino}-4α-[(2-hydroxy)(1-methylcarbonylamino)ethyl]-cyclopentan-r-carboxylate:diethylether:hydrate (12:4:3), isomer B] | 65 °C
19 | CC(=O)NC(COCc1ccccc1)[C@H]1C[C@@](O)(C(=O)O)C[C@@H]1N (stereo partly drawn) (as salt: ammonium) | 37 to 39 °C
20 | CC(=O)NC(C(O)C(O)CO)[C@H]1CC(C(=O)O)C[C@@H]1N (single isomer, unassigned) (as salt: salt) | 58 to 62 °C
21 | CC(=O)NC(COC(=O)C(F)(F)F)[C@H]1C[C@](O)(C(=O)O)C[C@@H]1NC(=N)N (single isomer, unassigned; isomer a) (as salt: salt) [Example 16, c-3-{[(Amino)(imino)methyl]amino}-t-1-hydroxy-t-4-[(1-methylcarbonylamino)(2-trifluoromethyl-carbonyloxy)ethyl]cyclopentan-r-carboxylic acid trifluoroacetic acid (4:1) (isomer A at C-6)] | 148 to 160 °C
22 | CCC=CC(NC(C)=O)[C@H]1CC(C(=O)O)C[C@@H]1NC(=N)N (stereo partly drawn) (as salt: salt) | 62 to 64 °C
23 | CCN(CC)C(=O)C(NC(C)=O)[C@H]1C[C@@H](C(=O)O)C[C@@H]1NC(=N)N (single isomer, unassigned) (as salt: trifluoroacetic acid salt) | > 110 °C (dec.)
24 | CC(=O)NC(C(O)C(O)CO)[C@H]1CC(C(=O)O)C[C@@H]1NC(=N)N (single isomer, unassigned; isomer b) (as salt: salt) [Example 15, 3β-{[(Amino)(imino)methyl]amino}-4α-[(1-methylcarbonylamino)(2,3,4-trihydroxy)butyl]cyclo-pentancarboxylic acid trifluoroacetic acid (5:13) (isomer B at C-6, isomer B at C-1, C-7 and/or C-8)] | 140 to 145 °C
25 | CC(=O)NC(C(O)C(O)CO)[C@H]1CC(C(=O)O)C[C@@H]1NC(=N)N (single isomer, unassigned; isomer b) (as salt: salt) [Example 13, 3β-{[(Amino)(imino)methyl]amino}-4α-[(1-methylcarbonylamino)(2,3,4-trihydroxy)butyl]-cyclopentancarboxylic acid trifluoroacetic acid (1:2) (isomer B at C-1, isomer A at C-6, isomer B at C-7)] | 124 to 128 °C
26 | CC(=O)NC(C(O)C(O)CO)[C@H]1CC(C(=O)O)C[C@@H]1NC(=N)N (single isomer, unassigned; isomer a) (as salt: salt) [Example 12, 3β-{[(Amino)(imino)methyl]amino}-4α-[(1-methylcarbonylamino) (2,3,4-trihydroxy)butyl)butyl]-cyclonentancarboxylic acid trifluoroacetic acid (1:2) (isomer A at C-1, isomer A at C-6, isomer B at C-7)] | 76 to 80 °C
27 | CCCN(CCC)C(=O)C(NC(C)=O)[C@H]1C[C@@](O)(C(=O)O)C[C@@H]1N (single isomer, unassigned) (as salt: salt) | 168 to 170 °C
